This data set in a line: RP, Waters ACQUITY UPLC BEH Shield RP18, 150 × 3 mm, 1.7 µm, 40 °C, 0.5 mL/min, estimated dead time 1.4 min; A: water + 0.1% formic acid; B: acetonitrile + 0.1% formic acid; gradient (min/%B) 0/0 9.91/26 18.51/65 18.76/100 20.76/100. The conditions noted are these: stereoisomer not certain.

With `O=C(O)c1cc(O)c(O)c(O)c1`, the LC retention time was 4.79 min.

In the case of `O=C(O)Cc1ccc(O)cc1`, the LC retention time was 8.61 min.

`O=c1c(OC2OC(CO)C(O)C(O)C2O)c(-c2ccc(O)cc2)oc2cc(O)cc(O)c12` (stereo not given): the LC retention time is 13.8 min.

Take `O=C(O)CCc1ccc(O)c(O)c1`: the LC retention time was 8.65 min.

Take `O=C(O)c1ccccc1O`: the LC retention time is 14.5 min.

Turning to `Oc1cc(O)c2c(c1)OC(c1ccc(O)c(O)c1)C(O)C2c1c(O)cc(O)c2c1OC(c1ccc(O)c(O)c1)C(O)C2` (stereo not given), the LC retention time was 10.2 min.

As for `COc1cc(C=CC(=O)O)ccc1O`, the LC retention time is 12.8 min.

Consider `O=C(O)C=Cc1ccc(O)cc1`, for which the LC retention time is 12.7 min.

For `O=c1c(OC2OC(CO)C(O)C2O)c(-c2ccc(O)c(O)c2)oc2cc(O)cc(O)c12` (stereo not given), the LC retention time was 13.7 min.

As for `CC1OC(OC2C(Oc3cc(O)c4c(c3)OC(c3ccc(O)cc3)CC4=O)OC(CO)C(O)C2O)C(O)C(O)C1O` (stereo not given), the LC retention time is 13 min.

On to `O=c1c(O)c(-c2ccccc2)oc2cc(O)cc(O)c12`, for which the LC retention time is 20.3 min.

For `COc1cc(C=CC(=O)O)cc(OC)c1O`, the LC retention time was 12.7 min.

With `O=C(CCc1ccc(O)cc1)c1c(O)cc(O)cc1OC1OC(CO)C(O)C(O)C1O` (stereo not given), the LC retention time is 13.7 min.

For the compound `O=C(O)c1ccc(O)c(O)c1`, the LC retention time is 7.05 min.

Turning to `O=C1c2c(O)cc(O)cc2OC(c2ccc(O)cc2)C1O` (stereo not given), the LC retention time is 14.8 min.

Turning to `O=C1CC(c2ccc(O)cc2)Oc2cc(O)cc(O)c21` (stereo not given), the LC retention time was 17.1 min.

As to `O=c1c(O)c(-c2ccc(O)c(O)c2)oc2cc(O)cc(O)c12`, the LC retention time is 16.7 min.

As for `O=c1cc(-c2ccc(O)c(O)c2)oc2cc(O)cc(O)c12`, the LC retention time was 16.6 min.

For the compound `COc1cc(-c2oc3cc(O)cc(O)c3c(=O)c2O)ccc1O`, the LC retention time was 18.1 min.

Consider `O=c1cc(-c2ccc(O)c(O)c2)oc2cc(OC3OC(CO)C(O)C(O)C3O)cc(O)c12` (stereo not given), for which the LC retention time was 12.7 min.

Turning to `O=C(CCc1ccc(O)cc1)c1c(O)cc(O)cc1O`, the LC retention time is 17 min.

In the case of `O=c1c(O)c(-c2ccc(O)cc2)oc2cc(O)cc(O)c12`, the LC retention time is 18.4 min.

In the case of `COc1cc(CCC(=O)O)ccc1O`, the LC retention time is 11.3 min.

Consider `CC1OC(Oc2c(-c3ccc(O)c(O)c3)oc3cc(O)cc(O)c3c2=O)C(O)C(O)C1O` (stereo not given), for which the LC retention time was 14 min.

Take `O=C1c2c(O)cc(O)cc2OC(c2ccc(O)c(O)c2)C1O` (stereo not given): the LC retention time is 13.3 min.

`O=c1cc(-c2ccc(O)cc2)oc2cc(O)cc(O)c12`: the LC retention time was 18 min.

Regarding `O=c1cc(-c2ccc(O)cc2)oc2cc(OC3OC(CO)C(O)C(O)C3O)cc(O)c12` (stereo not given), the LC retention time is 13.7 min.

For the compound `CCCOC(=O)c1cc(O)c(O)c(O)c1`, the LC retention time was 13.8 min.

As to `CC1OC(OCC2OC(Oc3c(-c4ccc(O)c(O)c4)oc4cc(O)cc(O)c4c3=O)C(O)C(O)C2O)C(O)C(O)C1O` (stereo not given), the LC retention time is 12.6 min.

Regarding `O=C(C=Cc1ccc(O)c(O)c1)OC1CC(O)(C(=O)O)CC(O)C1O` (stereo not given), the LC retention time is 8.3 min.
